Assay results as given in patent publication US7094413B2, “Combined therapy for treatment of HIV infection” (priority 2002, dated 2006).
“Also recorded” adds a separate entry of the source.

Columns and labels:
[1] = tested on: T cells in gut associated lymphoid tissue (GALT) and blood; test: Flow cytometry of T cells from jejunal biopsies (GALT) and peripheral blood of SIV-infected rhesus macaques; type: in vivo, rhesus macaques (Macaca mulatta)
Text: (§1) Fifteen (15) colony bred rhesus macaques (Macaca mulatta) from the California Regional Primate Research Center, Davis, were used in this study. Animals were housed in accordance with The American Association for Accredition of Laboratory Animal Care guidelines. All animals were seronegative for simian retrovirus (SRV-1) and simian T cell leukemia virus type-1 (STLV-1). Rhesus macaques were intravenously (I.V.) infected with 100 animal infectious doses of uncloned pathogenic SIVmac251. This viral inoculum has been previously shown to cause persistent viremia and infection Of multiple tissues in vivo, leading to fatal AIDS-like disease (Mandell et al 1995). The animals were divided into the following groups • 1. Untreated Controls, necropsy at week 10 (n=3) • 2. Untreated Controls, necropsy at week 26 (n=3) • 3 PMPA treatment, necropsy at week 10 (n=3) • 4. PMPA+RDP58 treatment, necropsy at week 10 (n=3) • 5. PMPA treatment, necropsy at week 26 (n=3) • 6. PMPA+RDP58 treatment, necropsy at week 26 (n=3)
PMPA treatment was initiated at 6 weeks post-infection and was administered at 30 mg/kg, I.V. RDP58 was administered orally, dissolved in drinking water, at 2 mg/kg, 3×/week.
Jejunal biopsies and peripheral blood samples were obtained from all animals prior to infection and at 2 weeks, 6 weeks, 10 weeks, 16 weeks and 26 weeks post-infection and at necropsy. Jejunal biopsies was obtained using a pediatric gastroscope.
Jejunal pinch biopsy samples were incubated RPMI 1640 (Gibco) and collagenase (Sigma) at 37° C. and rapidly shaken for 45 minutes then subjected to Percoll (Sigma) density gradient centrifugation to enrich for T cells and eliminate tissue debris. Cells were then washed with PBS (Gibco) and allowed to equilibrate over night at 37° C. and 5% CO2 in complete RPMI 1640 (containing 10% fetal calf sera, penicillin and streptomyicin). Cells were stained for three-color flow cytometric analysis with CD3FITC, CD4PE, CD8PE, CD45RA (BD Pharmingen), CD8TC, CD69TC, CD28TC, CD25PE (Caltag). All cells were fixed in 1% paraformaldehyde in PBS and read on a Bectin Dickenson FacScan within 3 hours of staining. Flow data was analyzed using Bectin Dickenson CellQuest softwear.

SIVmac251 = test: Plasma viral load (real time RT-PCR of SIV RNA) in SIV-infected rhesus macaques; type: in vivo, rhesus macaques (Macaca mulatta)
Text: as §1, with “PMPA+RDP58 treatment, necropsy at week 26 (n=3)” left out
Primers and probes specific to the SIV RNA sequence were designed and used in the real time PCR reaction. […] The progress of the reaction is monitored through the fluorescence released by […] that is proportional to the product being formed. Thus the fluorescence intensity is directly related to the amount of input target RNA. The data was analyzed with Sequence Detector Software (SDS). […]

| Compound | CD3 gated CD4+ T cells after SIV-induced depletion ([1]; GALT and blood, treatment from week 6) | % CD3 gated CD8+ cells ([1]; by week 10) | CD4+CD8+ double positive T cell counts in GALT ([1]; week 12, GALT) | plasma viral load (viral RNA copies/ml plasma) (SIVmac251; therapy started at week 6 post infection, PMPA 30 mg/kg I.V.) | stabilizing CD4+ T-cell population in GALT ([1]; GALT) | effect of RDP58 on suppression of viral loads by antiretroviral therapy (SIVmac251; RDP58 2 mg/kg orally 3x/week, alone or added to PMPA, 2 mg/kg) |
| --- | --- | --- | --- | --- | --- | --- |
| C[C@H](Cn1cnc2c(N)ncnc21)OCP(=O)(O)O [PMPA, 9-R-(2-phosphonomethoxypropyl)adenine] | reversal | gradual decrease | modest changes | gradual decrease in viral load | – | – |
| Arg-nL-nL-nL-Arg-nL-nL-nL-Gly-Tyr [RDP58] | – | – | – | – | beneficial effects | no adverse effect; also recorded: did not interfere with or change the effect of antiretroviral therapy |
